Measured values: article PMC9243654 (Frontiers in Nutrition, 2022)
Read-outs that look alike come from different tables or passages of the source.

How the values were obtained:
[1] = ref PubChem database, cited from earlier work
in vitro = assay: in vitro
Experimental: The PAMPA-BBB assay was conducted according to the methodology followed by Di et al., with some modifications as described below ([15]). First, the BBB solution was prepared by dissolving 8 mg of PBL and 4 mg of cholesterol in 600 μl of n-dodecane. The initial donor solution was prepared by mixing 1 ml of extract (10 mg ml^−1 in EtOH) with 1 ml of buffer (PBS, pH = 7.4, 10 mM). The filter membrane of the donor plate was carefully coated with 5 μl of BBB solution. The acceptor plate was filled with 350 μl of buffer, and the donor plate was carefully assembled over the acceptor plate like a “sandwich.” Finally, the donor plate was filled with 350 μl of donor solution, covered, and incubated for 4 h at 37°C in the dark. After incubation time, 300 μl of the solution was taken from both plates, transferred to separate vials, and dried in the SpeedVac system at 40°C and 13 mbar pressure. Dried acceptor and donor solution were dissolved in 50 μl of pure EtOH before subjecting to UHPLC-Q-TOF-MS analysis. Permeability across in vitro BBB of the bioactive compound was measured according to Equation (1) ([25]), with some modifications in concentration rates.
(1) Pe=-ln[1-CA(t)/Ce]/A^*(1/VD+1/VA)^*t
Cequilibrium was calculated according to the following equation ([2]):
(2) Cequilibrium=[CD(t)*VD+CA(t)*VA]/(VD+VA)

[2] = compounds identified in LPLE extract
[3] = compound within KD extract, 4 h, 37°C, PBS pH 7.4
[4] = compounds of RSFE extract, octanol-water partition coefficient
[5] = PAMPA, pH 7.4, PAMPA-BBB log Pe (cm s−1), compound within RSFE extract, 4 h, 37°C, PBS pH 7.4
[6] = PAMPA, pH 7.4, PAMPA-BBB log Pe (cm s−1)
[7] = compound within LPLE (Nothofagus pumilio, lenga PLE extract), classes based on Könczöl et al.
[8] = PAMPA, pH 7.4, PAMPA-BBB log Pe (cm s−1), compound within KD extract, 4 h, 37°C, PBS pH 7.4

COc1cc(/C=C/C=O)cc(OC)c1O [Sinapaldehyde]
Log P [1, 2]: 1.4
Log P ([1]; compounds of ASFE extract): 1.4
Cross BBB potential (in vitro; compound within ASFE extract): -

CC(=O)O[C@H]1CC[C@]2(CO)[C@H]3CC[C@]4(C)[C@@H](c5ccc(=O)oc5)CC[C@]4(O)[C@@H]3CC[C@]2(O)C1 [Hellebrigenol-3-monoacetate]
Log P ([1]; compounds of KD extract): 1.6
Cross BBB potential (in vitro; compound within KD extract): ++ (log Pe > −5.5)
PAMPA-BBB log Pe (cm s−1) (in vitro; [3]): −4.70 cm s−1

O=C(O)c1ccc(O)cc1 [p-salycilic acid]
Log P [1, 4]: 1.6
Cross BBB potential (in vitro; compound within RSFE extract): +++ (log Pe > −4.5)
PAMPA-BBB log Pe (cm s−1) (in vitro; compound within RSFE extract, 4 h, 37°C, PBS pH 7.4): −4.18 cm s−1
Cross BBB potential (in vitro; compound within T33 extract): ++ (log Pe > −5.5)
PAMPA-BBB log Pe (cm s−1) (in vitro; compound within T33 extract, 4 h, 37°C, PBS pH 7.4): −4.75 cm s−1

COc1ccc(-c2cc(=O)c3c(O)c(O)c(OC)cc3o2)cc1 [Ladanein]
Log P [1, 4]: 2.0
Papp at 4 h (in vitro; [5]): 141 ×10⁻⁶ cm/s
Cross BBB potential (in vitro; compound within RSFE extract): +++ (log Pe > −4.5)

CC(C)c1cc2c(cc1O)C1(C)CCC(=O)C(C)(C)C1CC2 (stereo not shown) [Hinokione]
Log P [1, 4]: 4.9
Cross BBB potential (in vitro; compound within RSFE extract): -

O=Cc1ccc(O)c(O)c1 [Protocatechuic aldehyde]
Log P [1, 2]: 1.1
Log P ([1]; compounds of ASFE extract): 1.1
PAMPA-BBB log Pe (cm s−1) (in vitro; PAMPA, pH 7.4): −5.75 cm s−1
PAMPA-BBB log Pe (in vitro; compound within LPLE (Nothofagus pumilio, lenga PLE extract), N.D = not detected in acceptor): −5.13 cm s−1

CC(C)c1cc2c(c(O)c1O)[C@@]13CCCC(C)(C)[C@@H]1C[C@@H]2OC3 [20-Deoxocarnosol]
Log P [1, 4]: 4.6
Cross BBB potential (in vitro; compound within RSFE extract): -

C=C(C)[C@@H]1CC[C@]2(C(=O)O)CC[C@]3(C)[C@H](CC[C@@H]4[C@@]5(C)CC[C@H](O)C(C)(C)[C@@H]5CC[C@]43C)[C@@H]12 [Betulinic acid]
Log P [1, 4]: 8.2
Cross BBB potential (in vitro; PAMPA): +
Papp at 4 h (in vitro; [6]): 0.229 ×10⁻⁶ cm/s

O=C(O[C@@H]1Cc2c(O)cc(O)cc2O[C@@H]1c1ccc(O)c(O)c1)c1cc(O)c(O)c(O)c1 [(-)-Epicatechin gallate]
Log P [1, 2]: 1.5
Log P ([1]; compounds of ASFE extract): 1.5
Cross BBB potential (in vitro; compound within ASFE extract): -
Cross BBB potential (in vitro; [7]): -

COc1c(O)cc2oc(-c3ccc(O)c(O)c3)cc(=O)c2c1O [Eupafolin]
Log P ([1]; compounds of KD extract): 1.4
Papp at 4 h (in vitro; [8]): 339 ×10⁻⁶ cm/s
Cross BBB potential (in vitro; compound within KD extract): +++ (log Pe > −4.5)

CC(C)c1cc2c(c(O)c1O)[C@@]13CCCC(C)(C)[C@@H]1[C@H](OC3=O)[C@H]2O [Rosmanol]
Log P [1, 4]: 3.4
Papp at 4 h (in vitro; [5]): 145 ×10⁻⁶ cm/s
Cross BBB potential (in vitro; compound within RSFE extract): +++ (log Pe > −4.5)

CC(C)c1cc2c(c(O)c1O)C(=O)C1CCCC(C)(C)C1CC2 (stereo not shown) [Rosmaridiphenol]
Log P [1, 4]: 5.9
Cross BBB potential (in vitro; PAMPA): +
PAMPA-BBB log Pe (cm s−1) (in vitro; PAMPA, 4 h, pH 7.4): −5.55 cm s−1

CC(C)c1cc2c(c(O)c1O)[C@@]13CCCC(C)(C)[C@@H]1C[C@@H]2OC3=O [Carnosol]
Log P [1, 4]: 4.4
Papp at 4 h (in vitro; [5]): 50.1 ×10⁻⁶ cm/s
Cross BBB potential (in vitro; compound within RSFE extract): +++ (log Pe > −4.5)

COc1cc(C(=O)O)ccc1O [Vanillic acid]
Log P [1, 2]: 1.4
Log P ([1]; compounds of ASFE extract): 1.4
Log P ([1]; compounds of KD extract): 1.4
Papp at 4 h (in vitro; PAMPA, pH 7.4, PAMPA-BBB log Pe (cm s−1), compound within ASFE extract, 4 h, 37°C, PBS pH 7.4): 2.14 ×10⁻⁶ cm/s
Papp at 4 h (in vitro; [8]): 55 ×10⁻⁶ cm/s
Papp at 4 h (in vitro; PAMPA, pH 7.4, PAMPA-BBB log Pe, compound within LPLE (Nothofagus pumilio, lenga PLE extract), N.D = not detected in acceptor): 1.35 ×10⁻⁶ cm/s
Cross BBB potential (in vitro; compound within ASFE extract): + (log Pe > −6.5)
Cross BBB potential (in vitro; compound within KD extract): +++ (log Pe > −4.5)
Cross BBB potential (in vitro; [7]): + (log Pe > −6.5)

COC(=O)[C@]12CCCC(C)(C)[C@@H]1CCc1cc(C(C)C)c(O)c(O)c12 [Methyl carnosate]
Log P [1, 4]: 5.2
Cross BBB potential (in vitro; PAMPA): ++
Papp at 4 h (in vitro; [6]): 5.5 ×10⁻⁶ cm/s

COc1ccc(-c2cc(=O)c3c(O)cc(OC)cc3o2)cc1 [4-Methoxytectochrysin]
Log P [1, 4]: 3.3
Cross BBB potential (in vitro; PAMPA): +++
PAMPA-BBB log Pe (cm s−1) (in vitro; PAMPA, 4 h, pH 7.4): −4.22 cm s−1

CC12O[C@H]3C[C@@H](O1)[C@]1(C=O)[C@H]4[C@H](O)C(=O)[C@]5(C)[C@@H](c6ccc(=O)oc6)CC[C@]5(O)[C@@H]4CC[C@@]1(C3)O2 [Daigremontianin]
Log P ([1]; compounds of KD extract): −0.3
detection in the acceptor plate of PAMPA-BBB (in vitro; PAMPA): could not be found in the acceptor plate
Cross BBB potential (in vitro; compound within KD extract): ++ (log Pe > −5.5)
PAMPA-BBB log Pe (cm s−1) (in vitro; [3]): −4.53 cm s−1

C[C@]12CC[C@H]3[C@@H](CC[C@]4(O)C[C@@H](O)C[C@@H](O)[C@]34C=O)[C@@]1(O)CC[C@@H]2c1ccc(=O)oc1 [Bersaldegenin]
Log P ([1]; compounds of KD extract): 0.2
Cross BBB potential (in vitro; compound within KD extract): -

O=C(O)C[C@H]1CCC(=O)[C@@H]1C/C=C\CCO [12- Hydroxyjasmonic acid]
Log P [1, 4]: 0.4
Cross BBB potential (in vitro; PAMPA): +++
PAMPA-BBB log Pe (cm s−1) (in vitro; PAMPA, 4 h, pH 7.4): −4.06 cm s−1

CC(CC(=O)CC(C)C1CC(O)C2(C)C3=C(C(=O)CC12C)C1(C)CCC(O)C(C)(CO)C1CC3)C(=O)O (stereo not shown) [Ganolucidic acid C]
Log P [1, 2]: 3.1
Log P ([1]; compounds of ASFE extract): 3.1
Cross BBB potential (in vitro; compound within ASFE extract): -
Cross BBB potential (in vitro; [7]): -

Oc1ccc(/C=C/c2cc(O)cc3c2[C@@H](c2cc(O)cc(O)c2)[C@H](c2ccc(O)cc2)O3)cc1 [ε-Viniferin]
Log P [1, 2]: 5.4
Log P ([1]; compounds of ASFE extract): 5.4
Cross BBB potential (in vitro; compound within ASFE extract): -
Cross BBB potential (in vitro; [7]): -

COc1cc(-c2oc3cc(O)cc(O)c3c(=O)c2O[C@@H]2O[C@H](CO)[C@@H](O)[C@H](O)[C@H]2O)ccc1O [Isorhamnetin-3-O-glucoside]
Log P [1, 4]: 0.7
Cross BBB potential (in vitro; compound within RSFE extract): -

C[C@@]12O[C@H]3C[C@@H](O1)[C@]1(C=O)[C@H]4[C@H](O)C[C@]5(C)[C@@H](c6ccc(=O)oc6)CC[C@]5(O)[C@@H]4CC[C@@]1(C3)O2 [Bryophyllin A]
Log P ([1]; compounds of KD extract): 0.6
Cross BBB potential (in vitro; compound within KD extract): -

Bersaldegenin-1,3,5-orthoacetate
Log P ([1]; compounds of KD extract): 4.87
Cross BBB potential (in vitro; compound within KD extract): -

C[C@]12C[C@@H](O)[C@H]3[C@@H](CC[C@]4(O)C[C@@H](O)CC[C@]34CO)[C@@]1(O)CC[C@@H]2c1ccc(=O)oc1 [11α,19-dihydroxytelocinobufagin]
Log P ([1]; compounds of KD extract): 3.63
Cross BBB potential (in vitro; compound within KD extract): -

Kalandaigremoside B
Log P ([1]; compounds of KD extract): 7.2
Cross BBB potential (in vitro; compound within KD extract): -

OC[C@H]1O[C@@H](Oc2cc(O)cc(/C=C/c3ccc(O)cc3)c2)[C@H](O)[C@@H](O)[C@@H]1O [Piceid]
Log P [1, 2]: 1.7
Log P ([1]; compounds of ASFE extract): 1.7
Cross BBB potential (in vitro; [7]): -

O=c1c(-c2ccc(O)cc2)coc2c([C@@H]3O[C@H](CO)[C@@H](O)[C@H](O)[C@H]3O)c(O)c([C@@H]3O[C@H](CO)[C@@H](O)[C@H](O)[C@H]3O)c(O)c12 [Paniculatin]
Log P ([1]; compounds of KD extract): −2.3
Cross BBB potential (in vitro; compound within KD extract): -

CC(CC(=O)C[C@@H](C)[C@H]1C[C@H](O)[C@@]2(C)C3=C(C(=O)C[C@]12C)[C@@]1(C)CC[C@H](O)C(C)(C)[C@@H]1CC3)C(=O)O (stereo partly shown) [Ganolucidic acid B]
Log P [1, 2]: 3.8
Log P ([1]; compounds of ASFE extract): 3.8
Cross BBB potential (in vitro; compound within ASFE extract): -
Cross BBB potential (in vitro; [7]): -

Oc1cccc(O)c1O [Pyrogallol]
Log P [1, 2]: 0.5
Cross BBB potential (in vitro; PAMPA): -

Kalandaigremoside C
Log P ([1]; compounds of KD extract): 7.2
Cross BBB potential (in vitro; compound within KD extract): -

O=C(O)CCCCCCCCCCCCCCC(=O)O [Hexadecanedioic acid]
Log P [1, 2]: 5.4
Log P ([1]; compounds of ASFE extract): 5.4
Cross BBB potential (in vitro; compound within ASFE extract): -
Cross BBB potential (in vitro; [7]): -
